Several values for one entry are separate records, joined by “and”; a condition that tells them apart may be missing. Identical values can stand only once. ± gives the expanded uncertainty stated by the source.
Conditions: Liquid; for electrical conductivity / mass density: 101.33 kPa; for electrical conductivity: Alternating current cell with electrodes; for mass density: Vibrating tube method

CCCC[N+]1(C)CCCC1.O=S(=O)([N-]S(=O)(=O)C(F)(F)F)C(F)(F)F
Conditions	viscosity
273.15 K, 100 kPa, Falling or rolling sphere viscometry	319.28 ± 22 mPa·s and 318.72 ± 22 mPa·s and 320.44 ± 22 mPa·s
273.15 K, 101.3 kPa, Concentric cylinders viscometry	322.4 ± 15 mPa·s
273.15 K, 820 kPa, Falling or rolling sphere viscometry	318.29 ± 22 mPa·s
273.15 K, 10850 kPa, Falling or rolling sphere viscometry	378.12 ± 28 mPa·s
273.15 K, 20760 kPa, Falling or rolling sphere viscometry	441.79 ± 35 mPa·s
273.15 K, 32190 kPa, Falling or rolling sphere viscometry	542.04 ± 45 mPa·s
273.15 K, 40240 kPa, Falling or rolling sphere viscometry	621.51 ± 54 mPa·s
273.15 K, 45000 kPa, Falling or rolling sphere viscometry	677.25 ± 61 mPa·s
273.15 K, 50310 kPa, Falling or rolling sphere viscometry	729.34 ± 67 mPa·s
273.15 K, 59200 kPa, Falling or rolling sphere viscometry	837.7 ± 80 mPa·s
273.15 K, 60550 kPa, Falling or rolling sphere viscometry	855.99 ± 82 mPa·s
273.15 K, 69280 kPa, Falling or rolling sphere viscometry	983.67 ± 99 mPa·s
273.15 K, 70310 kPa, Falling or rolling sphere viscometry	1008.7 ± 100 mPa·s
273.15 K, 80520 kPa, Falling or rolling sphere viscometry	1184.8 ± 130 mPa·s
278.15 K, 100 kPa, Falling or rolling sphere viscometry	224.84 ± 14 mPa·s and 224.85 ± 14 mPa·s
278.15 K, 101.3 kPa, Concentric cylinders viscometry	230.9 ± 10 mPa·s
283.15 K, 100 kPa, Falling or rolling sphere viscometry	167.09 ± 9.2 mPa·s [middle of 4 runs]
283.15 K, 101.3 kPa, Concentric cylinders viscometry	170.1 ± 7.3 mPa·s
283.15 K, 10140 kPa, Falling or rolling sphere viscometry	192.43 ± 11 mPa·s
283.15 K, 19970 kPa, Falling or rolling sphere viscometry	222.97 ± 14 mPa·s
283.15 K, 29990 kPa, Falling or rolling sphere viscometry	259.18 ± 17 mPa·s
283.15 K, 40620 kPa, Falling or rolling sphere viscometry	303.3 ± 21 mPa·s
283.15 K, 50520 kPa, Falling or rolling sphere viscometry	350.45 ± 25 mPa·s
283.15 K, 59770 kPa, Falling or rolling sphere viscometry	398.94 ± 30 mPa·s
283.15 K, 70190 kPa, Falling or rolling sphere viscometry	463.39 ± 37 mPa·s
283.15 K, 78710 kPa, Falling or rolling sphere viscometry	517.26 ± 43 mPa·s
283.15 K, 89720 kPa, Falling or rolling sphere viscometry	620.7 ± 54 mPa·s
283.15 K, 89960 kPa, Falling or rolling sphere viscometry	604.22 ± 52 mPa·s
283.15 K, 100390 kPa, Falling or rolling sphere viscometry	708.87 ± 65 mPa·s and 702.53 ± 64 mPa·s
288.15 K, 101.3 kPa, Concentric cylinders viscometry	128.4 ± 5.4 mPa·s
293.15 K, 100 kPa, Falling or rolling sphere viscometry	99.81 ± 4.6 mPa·s and 99.92 ± 4.6 mPa·s
293.15 K, 101.3 kPa, Concentric cylinders viscometry	98.95 ± 4.1 mPa·s and 99 ± 4.1 mPa·s
298.15 K, 100 kPa, Falling or rolling sphere viscometry	76.63 ± 3.5 mPa·s [middle of 5 runs]
298.15 K, 101.3 kPa, Concentric cylinders viscometry	77.83 ± 3.2 mPa·s
298.15 K, 860 kPa, Falling or rolling sphere viscometry	77.22 ± 3.5 mPa·s
298.15 K, 10370 kPa, Falling or rolling sphere viscometry	87.96 ± 3.9 mPa·s
298.15 K, 20760 kPa, Falling or rolling sphere viscometry	100.93 ± 4.6 mPa·s
298.15 K, 30700 kPa, Falling or rolling sphere viscometry	114.96 ± 5.5 mPa·s
298.15 K, 40660 kPa, Falling or rolling sphere viscometry	130.58 ± 6.6 mPa·s
298.15 K, 50630 kPa, Falling or rolling sphere viscometry	148.26 ± 7.8 mPa·s
298.15 K, 60600 kPa, Falling or rolling sphere viscometry	167.95 ± 9.2 mPa·s
298.15 K, 70390 kPa, Falling or rolling sphere viscometry	189.46 ± 11 mPa·s
298.15 K, 80180 kPa, Falling or rolling sphere viscometry	213.75 ± 13 mPa·s
298.15 K, 90600 kPa, Falling or rolling sphere viscometry	242.18 ± 15 mPa·s
298.15 K, 100230 kPa, Falling or rolling sphere viscometry	271.62 ± 19 mPa·s
303.15 K, 100 kPa, Falling or rolling sphere viscometry	62.82 ± 2.6 mPa·s and 62.63 ± 2.6 mPa·s
303.15 K, 101.3 kPa, Concentric cylinders viscometry	62.26 ± 2.5 mPa·s
313.15 K, 100 kPa, Falling or rolling sphere viscometry	41.27 ± 1.7 mPa·s and 41.24 ± 1.7 mPa·s
313.15 K, 101.3 kPa, Concentric cylinders viscometry	41.72 ± 1.7 mPa·s
323.15 K, 100 kPa, Falling or rolling sphere viscometry	29.04 ± 1.2 mPa·s [middle of 5 runs]
323.15 K, 101.3 kPa, Concentric cylinders viscometry	29.42 ± 1.2 mPa·s
323.15 K, 10520 kPa, Falling or rolling sphere viscometry	32.31 ± 1.3 mPa·s
323.15 K, 20600 kPa, Falling or rolling sphere viscometry	36.21 ± 1.5 mPa·s
323.15 K, 29970 kPa, Falling or rolling sphere viscometry	40.16 ± 1.6 mPa·s
323.15 K, 39910 kPa, Falling or rolling sphere viscometry	44.72 ± 1.8 mPa·s
323.15 K, 50590 kPa, Falling or rolling sphere viscometry	50.06 ± 2 mPa·s
323.15 K, 60550 kPa, Falling or rolling sphere viscometry	55.73 ± 2.3 mPa·s
323.15 K, 70490 kPa, Falling or rolling sphere viscometry	61.77 ± 2.6 mPa·s
323.15 K, 80450 kPa, Falling or rolling sphere viscometry	68.24 ± 2.9 mPa·s
323.15 K, 90470 kPa, Falling or rolling sphere viscometry	75.36 ± 3.2 mPa·s
323.15 K, 100400 kPa, Falling or rolling sphere viscometry	82.99 ± 4.3 mPa·s
333.15 K, 100 kPa, Falling or rolling sphere viscometry	21.31 ± 0.89 mPa·s and 21.3 ± 0.89 mPa·s
333.15 K, 101.3 kPa, Concentric cylinders viscometry	21.64 ± 0.87 mPa·s
343.15 K, 100 kPa, Falling or rolling sphere viscometry	16.14 ± 0.66 mPa·s and 16.13 ± 0.66 mPa·s
343.15 K, 101.3 kPa, Concentric cylinders viscometry	16.46 ± 0.67 mPa·s
348.15 K, 100 kPa, Falling or rolling sphere viscometry	14.07 ± 0.58 mPa·s and 14.06 ± 0.58 mPa·s
348.15 K, 10850 kPa, Falling or rolling sphere viscometry	15.68 ± 0.64 mPa·s
348.15 K, 11990 kPa, Falling or rolling sphere viscometry	15.82 ± 0.65 mPa·s
348.15 K, 21760 kPa, Falling or rolling sphere viscometry	17.54 ± 0.72 mPa·s
348.15 K, 29210 kPa, Falling or rolling sphere viscometry	18.8 ± 0.77 mPa·s
348.15 K, 38020 kPa, Falling or rolling sphere viscometry	20.38 ± 0.84 mPa·s
348.15 K, 49600 kPa, Falling or rolling sphere viscometry	22.9 ± 0.94 mPa·s
348.15 K, 64630 kPa, Falling or rolling sphere viscometry	26.45 ± 1.1 mPa·s
348.15 K, 73060 kPa, Falling or rolling sphere viscometry	28.44 ± 1.2 mPa·s
348.15 K, 85040 kPa, Falling or rolling sphere viscometry	31.53 ± 1.3 mPa·s
348.15 K, 102920 kPa, Falling or rolling sphere viscometry	36.8 ± 1.5 mPa·s
353.15 K, 100 kPa, Falling or rolling sphere viscometry	12.73 ± 0.53 mPa·s and 12.67 ± 0.52 mPa·s
353.15 K, 101.3 kPa, Concentric cylinders viscometry	12.91 ± 0.52 mPa·s
363.15 K, 101.3 kPa, Concentric cylinders viscometry	10.35 ± 0.42 mPa·s

Conditions	electrical conductivity [S/m]	mass density
273.15 K	0.0741 ± 0.003	1416.89 ± 0.59 kg/m3 and 1416.94 ± 0.31 kg/m3 and 1416.7 ± 3.9 kg/m3
278.15 K	0.101 ± 0.0041	1412.1 ± 3.9 kg/m3
283.15 K	0.134 ± 0.0054	1407.76 ± 0.59 kg/m3 and 1407.82 ± 0.31 kg/m3 and 1407.6 ± 3.9 kg/m3
288.15 K	0.174 ± 0.007	1403.39 ± 0.31 kg/m3 and 1403.2 ± 3.8 kg/m3
293.14 K	0.221 ± 0.0089	–
293.15 K	–	1398.92 ± 0.58 kg/m3 [middle of 4 runs]
298.14 K	0.276 ± 0.011	–
298.15 K	0.275 ± 0.011	1394.51 ± 0.57 kg/m3 and 1394.4 ± 3.8 kg/m3
303.15 K	0.338 ± 0.013	1390.1 ± 0.57 kg/m3 and 1390.17 ± 0.3 kg/m3 and 1390 ± 3.8 kg/m3
313.15 K	0.486 ± 0.019	1381.31 ± 0.56 kg/m3 and 1381.38 ± 0.3 kg/m3 and 1381.2 ± 3.7 kg/m3
323.14 K	0.667 ± 0.027	–
323.15 K	–	1372.58 ± 0.55 kg/m3 and 1372.67 ± 0.3 kg/m3 and 1372.5 ± 3.7 kg/m3
333.15 K	0.879 ± 0.035	1363.89 ± 0.54 kg/m3 and 1363.97 ± 0.29 kg/m3 and 1363.9 ± 3.6 kg/m3
343.14 K	1.12 ± 0.045	–
343.15 K	–	1355.26 ± 0.54 kg/m3 and 1355.36 ± 0.29 kg/m3 and 1355.3 ± 3.6 kg/m3
353.15 K	1.39 ± 0.056	1346.69 ± 0.53 kg/m3 and 1346.78 ± 0.29 kg/m3 and 1346.8 ± 3.5 kg/m3
363.15 K	–	1338.16 ± 0.52 kg/m3 and 1338.25 ± 0.29 kg/m3 and 1338.4 ± 3.5 kg/m3

Reference: the NIST ThermoML archive (doi:10.1021/je2006049)
